According to US20130216666A1, “CASHEW NUT SHELL LIQUID WITH IMPROVED STABILITY” (IDEMITSU KOSAN CO., LTD., priority 2010, published 2013):
Like-named read-outs stand apart in the source and are kept apart here.

Assays:
[1] = Inhibition of decarboxylation reaction in unheated cashew nut shell liquid formulation (silica), phosphoric acid / phosphate; format: physicochemical; conditions: 80° C.; for Anacardic Acid 15:1 Composition (%) / Anacardic Acid 15:1 concentration / Anacardic Acid 15:2 Composition (%) / Anacardic Acid 15:2 concentration / Anacardic Acid 15:3 Composition (%) / Anacardic Acid 15:3 concentration / Cardanol 15:1 Composition (%) / Cardanol 15:1 concentration / Cardanol 15:2 Composition (%) / Cardanol 15:2 concentration / Cardanol 15:3 Composition (%) / Cardanol 15:3 concentration: 10% by weight in unheated CNSL, mixed with silica; for inhibition of the decarboxylation: formulation with silica, 10% by weight, 3 days
Experimental: 10 g of silica (Sipernat 22) was placed into each of beakers. […] The sodium dihydrogen phosphate was added as an aqueous solution.

[2] = 80° C.; for Anacardic Acid 15:1 Composition (%) / Anacardic Acid 15:1 concentration / Anacardic Acid 15:2 Composition (%) / Anacardic Acid 15:2 concentration / Anacardic Acid 15:3 Composition (%) / Anacardic Acid 15:3 concentration / Cardanol 15:1 concentration / Cardanol 15:2 Composition (%) / Cardanol 15:2 concentration / Cardanol 15:3 Composition (%) / Cardanol 15:3 concentration / Cardanol 15:1 Composition (%): 10% by weight in unheated CNSL; for inhibition of the decarboxylation: 10% by weight, three days
[3] = Inhibition of decarboxylation reaction in feed; conditions: 10% by weight in unheated CNSL, 80° C.; for Anacardic Acid 15:1 Composition (%) / Anacardic Acid 15:1 concentration / Anacardic Acid 15:2 Composition (%) / Anacardic Acid 15:2 concentration / Anacardic Acid 15:3 Composition (%) / Anacardic Acid 15:3 concentration / Cardanol 15:1 Composition (%) / Cardanol 15:1 concentration / Cardanol 15:2 Composition (%) / Cardanol 15:2 concentration / Cardanol 15:3 Composition (%) / Cardanol 15:3 concentration: silica composition 1% by weight in feed;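 further: ethyl acetate extract of test feed analysed by reversed-phase C18 HPLC with absorbance detection at 280 nm, giving component composition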
Experimental: The analysis was carried out under the conditions of a solvent composition of acetonitrile: water: acetic acid =80:20:1 (based on volume), a flow rate of 2 ml/min, a temperature of 25° C., and an absorbance of 280 nm.
Samples were taken from the beakers after 3 days and analyzed for composition by HPLC.
For HPLC analysis, soluble fractions of the test feed was extracted with ethyl acetate and then filtered and dried to concentrate it to 5 mg/ml.

SMILES: O=P(O)(O)O [Phosphoric Acid, phosphoric acid]
- Anacardic Acid 15:1 Composition (%) ([1]; Day 0): 40.20%
- Anacardic Acid 15:1 concentration ([1]; Day 0): 563.78 ppm
- Anacardic Acid 15:2 Composition (%) ([1]; Day 0): 14.00%
- Anacardic Acid 15:2 concentration ([1]; Day 0): 196.40 ppm
- Anacardic Acid 15:3 Composition (%) ([1]; Day 0): 32.21%
- Anacardic Acid 15:3 concentration ([1]; Day 0): 451.72 ppm
- Cardanol 15:1 Composition (%) ([1]; Day 0): 5.74%
- Cardanol 15:1 concentration ([1]; Day 0): 80.56 ppm
- Cardanol 15:2 Composition (%) ([1]; Day 0): 2.45%
- Cardanol 15:2 concentration ([1]; Day 0): 34.39 ppm
- Cardanol 15:3 Composition (%) ([1]; Day 0): 5.39%
- Cardanol 15:3 concentration ([1]; Day 0): 75.66 ppm
- Anacardic Acid 15:1 Composition (%) ([1]; Day 3): 38.30%
- Anacardic Acid 15:1 concentration ([1]; Day 3): 496.13 ppm
- Anacardic Acid 15:2 Composition (%) ([1]; Day 3): 13.34%
- Anacardic Acid 15:2 concentration ([1]; Day 3): 172.83 ppm
- Anacardic Acid 15:3 Composition (%) ([1]; Day 3): 30.69%
- Anacardic Acid 15:3 concentration ([1]; Day 3): 397.52 ppm
- Cardanol 15:1 Composition (%) ([1]; Day 3): 7.46%
- Cardanol 15:1 concentration ([1]; Day 3): 96.68 ppm
- Cardanol 15:2 Composition (%) ([1]; Day 3): 3.19%
- Cardanol 15:2 concentration ([1]; Day 3): 41.27 ppm
- Cardanol 15:3 Composition (%) ([1]; Day 3): 7.01%
- Cardanol 15:3 concentration ([1]; Day 3): 90.79 ppm
- inhibition of the decarboxylation [1]: significant inhibition
- Anacardic Acid 15:1 Composition (%) ([2]; Day 0): 32.73%
- Anacardic Acid 15:1 concentration ([2]; Day 0): 978 ppm
- Anacardic Acid 15:2 Composition (%) ([2]; Day 0): 18.69%
- Anacardic Acid 15:2 concentration ([2]; Day 0): 559 ppm
- Anacardic Acid 15:3 Composition (%) ([2]; Day 0): 42.99%
- Anacardic Acid 15:3 concentration ([2]; Day 0): 1285 ppm
- Cardanol 15:1 concentration ([2]; Day 0): 46 ppm
- Cardanol 15:2 Composition (%) ([2]; Day 0): 1.26%
- Cardanol 15:2 concentration ([2]; Day 0): 38 ppm
- Cardanol 15:3 Composition (%) ([2]; Day 0): 2.78%
- Cardanol 15:3 concentration ([2]; Day 0): 83 ppm
- Anacardic Acid 15:1 Composition (%) ([2]; Day 3): 32.55%
- Anacardic Acid 15:1 concentration ([2]; Day 3): 968 ppm
- Anacardic Acid 15:2 Composition (%) ([2]; Day 3): 18.61%
- Anacardic Acid 15:2 concentration ([2]; Day 3): 554 ppm
- Anacardic Acid 15:3 Composition (%) ([2]; Day 3): 42.80%
- Anacardic Acid 15:3 concentration ([2]; Day 3): 1273 ppm
- Cardanol 15:1 concentration ([2]; Day 3): 46 ppm
- Cardanol 15:2 Composition (%) ([2]; Day 3): 1.41%
- Cardanol 15:2 concentration ([2]; Day 3): 42 ppm
- Cardanol 15:3 Composition (%) ([2]; Day 3): 3.10%
- Cardanol 15:3 concentration ([2]; Day 3): 92 ppm
- inhibition of the decarboxylation [2]: significant inhibition
- stability of the shell liquid in the feed (progress of the decarboxylation) ([3]; in feed, 3 days): stable in the feed without progress of the decarboxylation
- Anacardic Acid 15:1 Composition (%) ([3]; Day 0): 40.28%
- Anacardic Acid 15:1 concentration ([3]; Day 0): 363.92 ppm
- Anacardic Acid 15:2 Composition (%) ([3]; Day 0): 13.76%
- Anacardic Acid 15:2 concentration ([3]; Day 0): 124.28 ppm
- Anacardic Acid 15:3 Composition (%) ([3]; Day 0): 33.11%
- Anacardic Acid 15:3 concentration ([3]; Day 0): 299.13 ppm
- Cardanol 15:1 Composition (%) ([3]; Day 0): 5.39%
- Cardanol 15:1 concentration ([3]; Day 0): 48.69 ppm
- Cardanol 15:2 Composition (%) ([3]; Day 0): 2.31%
- Cardanol 15:2 concentration ([3]; Day 0): 20.83 ppm
- Cardanol 15:3 Composition (%) ([3]; Day 0): 5.15%
- Cardanol 15:3 concentration ([3]; Day 0): 46.52 ppm
- Anacardic Acid 15:1 Composition (%) ([3]; Day 3): 39.75%
- Anacardic Acid 15:1 concentration ([3]; Day 3): 345.72 ppm
- Anacardic Acid 15:2 Composition (%) ([3]; Day 3): 13.57%
- Anacardic Acid 15:2 concentration ([3]; Day 3): 118.06 ppm
- Anacardic Acid 15:3 Composition (%) ([3]; Day 3): 32.67%
- Anacardic Acid 15:3 concentration ([3]; Day 3): 284.18 ppm
- Cardanol 15:1 Composition (%) ([3]; Day 3): 5.88%
- Cardanol 15:1 concentration ([3]; Day 3): 51.13 ppm
- Cardanol 15:2 Composition (%) ([3]; Day 3): 2.51%
- Cardanol 15:2 concentration ([3]; Day 3): 21.87 ppm
- Cardanol 15:3 Composition (%) ([3]; Day 3): 5.62%
- Cardanol 15:3 concentration ([3]; Day 3): 48.85 ppm

SMILES: O=P([O-])(O)O.[Na+] [Sodium Dihydrogen Phosphate, sodium dihydrogen phosphate]
- Anacardic Acid 15:1 Composition (%) ([1]; Day 0): 40.20%
- Anacardic Acid 15:1 concentration ([1]; Day 0): 563.78 ppm
- Anacardic Acid 15:2 Composition (%) ([1]; Day 0): 14.00%
- Anacardic Acid 15:2 concentration ([1]; Day 0): 196.40 ppm
- Anacardic Acid 15:3 Composition (%) ([1]; Day 0): 32.21%
- Anacardic Acid 15:3 concentration ([1]; Day 0): 451.72 ppm
- Cardanol 15:1 Composition (%) ([1]; Day 0): 5.74%
- Cardanol 15:1 concentration ([1]; Day 0): 80.56 ppm
- Cardanol 15:2 Composition (%) ([1]; Day 0): 2.45%
- Cardanol 15:2 concentration ([1]; Day 0): 34.39 ppm
- Cardanol 15:3 Composition (%) ([1]; Day 0): 5.39%
- Cardanol 15:3 concentration ([1]; Day 0): 75.66 ppm
- Anacardic Acid 15:1 Composition (%) ([1]; Day 3): 32.90%
- Anacardic Acid 15:1 concentration ([1]; Day 3): 502.26 ppm
- Anacardic Acid 15:2 Composition (%) ([1]; Day 3): 11.28%
- Anacardic Acid 15:2 concentration ([1]; Day 3): 172.11 ppm
- Anacardic Acid 15:3 Composition (%) ([1]; Day 3): 25.93%
- Anacardic Acid 15:3 concentration ([1]; Day 3): 395.86 ppm
- Cardanol 15:1 Composition (%) ([1]; Day 3): 13.16%
- Cardanol 15:1 concentration ([1]; Day 3): 200.81 ppm
- Cardanol 15:2 Composition (%) ([1]; Day 3): 5.23%
- Cardanol 15:2 concentration ([1]; Day 3): 79.82 ppm
- Cardanol 15:3 Composition (%) ([1]; Day 3): 11.50%
- Cardanol 15:3 concentration ([1]; Day 3): 175.60 ppm
- inhibition of the decarboxylation [1]: moderate inhibition
- Anacardic Acid 15:1 Composition (%) ([2]; Day 0): 39.93%
- Anacardic Acid 15:1 concentration ([2]; Day 0): 1103 ppm
- Anacardic Acid 15:2 Composition (%) ([2]; Day 0): 14.10%
- Anacardic Acid 15:2 concentration ([2]; Day 0): 389 ppm
- Anacardic Acid 15:3 Composition (%) ([2]; Day 0): 32.43%
- Anacardic Acid 15:3 concentration ([2]; Day 0): 896 ppm
- Cardanol 15:1 Composition (%) ([2]; Day 0): 5.46%
- Cardanol 15:1 concentration ([2]; Day 0): 151 ppm
- Cardanol 15:2 Composition (%) ([2]; Day 0): 2.52%
- Cardanol 15:2 concentration ([2]; Day 0): 70 ppm
- Cardanol 15:3 Composition (%) ([2]; Day 0): 5.55%
- Cardanol 15:3 concentration ([2]; Day 0): 153 ppm
- Anacardic Acid 15:1 Composition (%) ([2]; Day 3): 30.94%
- Anacardic Acid 15:1 concentration ([2]; Day 3): 964 ppm
- Anacardic Acid 15:2 Composition (%) ([2]; Day 3): 10.81%
- Anacardic Acid 15:2 concentration ([2]; Day 3): 337 ppm
- Anacardic Acid 15:3 Composition (%) ([2]; Day 3): 24.87%
- Anacardic Acid 15:3 concentration ([2]; Day 3): 774 ppm
- Cardanol 15:1 Composition (%) ([2]; Day 3): 14.32%
- Cardanol 15:1 concentration ([2]; Day 3): 446 ppm
- Cardanol 15:2 Composition (%) ([2]; Day 3): 5.95%
- Cardanol 15:2 concentration ([2]; Day 3): 185 ppm
- Cardanol 15:3 Composition (%) ([2]; Day 3): 13.10%
- Cardanol 15:3 concentration ([2]; Day 3): 408 ppm
- inhibition of the decarboxylation [2]: moderate inhibition
